# Data as given in article PMC9481151, “Discovery of new symmetrical and asymmetrical nitrile-containing 1,4-dihydropyridine derivatives as dual kinases and P-glycoprotein inhibitors: synthesis, in vitro assays, and in silico studies” (Journal of Enzyme Inhibition and Medicinal Chemistry, 2022).
# Key:
# [1] = test system: U251; assay: NCI single dose (10 µM) SRB screen; format: cell-based, human; conditions: CNS cancer, 48 h
# [2] = test system: Candida albicans; assay: Agar well diffusion method; conditions: relative to clotrimazole
# [3] = test system: OVCAR-4; assay: NCI single dose (10 µM) SRB screen; format: cell-based, human; conditions: ovarian cancer, 48 h
# [4] = test system: K-562; assay: NCI single dose (10 µM) SRB screen; format: cell-based, human; conditions: leukaemia, 48 h
# [5] = test system: SW-620; assay: NCI single dose (10 µM) SRB screen; format: cell-based, human; conditions: colon cancer, 48 h
# [6] = test system: Escherichia coli; assay: Agar well diffusion method; conditions: relative to ciprofloxacin
# [7] = test system: Aspergillus flavus; assay: Agar well diffusion method; conditions: relative to clotrimazole
# [8] = test system: MALME-3M; assay: NCI single dose (10 µM) SRB screen; format: cell-based, human; conditions: melanoma, 48 h
# [9] = test system: A498; assay: NCI single dose (10 µM) SRB screen; format: cell-based, human; conditions: renal cancer, 48 h
# [10] = test system: HT29; assay: NCI single dose (10 µM) SRB screen; format: cell-based, human; conditions: colon cancer, 48 h
# [11] = test system: SK-OV-3; assay: NCI single dose (10 µM) SRB screen; format: cell-based, human; conditions: ovarian cancer, 48 h
# [12] = test system: HOP-92; assay: NCI single dose (10 µM) SRB screen; format: cell-based, human; conditions: non-small cell lung cancer, 48 h
# [13] = test system: MDA-MB-435; assay: NCI single dose (10 µM) SRB screen; format: cell-based, human; conditions: melanoma, 48 h
# [14] = test system: HL-60(TB); assay: NCI single dose (10 µM) SRB screen; format: cell-based, human; conditions: leukaemia, 48 h
# [15] = test system: MCF7; assay: NCI single dose (10 µM) SRB screen; format: cell-based, human; conditions: breast cancer, 48 h
# [16] = test system: SK-MEL-2; assay: NCI single dose (10 µM) SRB screen; format: cell-based, human; conditions: melanoma, 48 h
# [17] = test system: NCI-H460; assay: NCI single dose (10 µM) SRB screen; format: cell-based, human; conditions: non-small cell lung cancer, 48 h
# [18] = test system: SR; assay: NCI single dose (10 µM) SRB screen; format: cell-based, human; conditions: leukaemia, 48 h
# [19] = test system: TK-10; assay: NCI single dose (10 µM) SRB screen; format: cell-based, human; conditions: renal cancer, 48 h
# [20] = test system: BT-549; assay: NCI single dose (10 µM) SRB screen; format: cell-based, human; conditions: breast cancer, 48 h
# [21] = test system: HOP-62; assay: NCI single dose (10 µM) SRB screen; format: cell-based, human; conditions: non-small cell lung cancer, 48 h
# [22] = test system: LOX IMVI; assay: NCI single dose (10 µM) SRB screen; format: cell-based, human; conditions: melanoma, 48 h
# [23] = test system: KM12; assay: NCI single dose (10 µM) SRB screen; format: cell-based, human; conditions: colon cancer, 48 h
# [24] = test system: NCI-H522; assay: NCI single dose (10 µM) SRB screen; format: cell-based, human; conditions: non-small cell lung cancer, 48 h
# [25] = test system: OVCAR-3; assay: NCI single dose (10 µM) SRB screen; format: cell-based, human; conditions: ovarian cancer, 48 h
# [26] = test system: SK-MEL-5; assay: NCI single dose (10 µM) SRB screen; format: cell-based, human; conditions: melanoma, 48 h
# [27] = test system: 786-0; assay: NCI single dose (10 µM) SRB screen; format: cell-based, human; conditions: renal cancer, 48 h
# [28] = test system: M14; assay: NCI single dose (10 µM) SRB screen; format: cell-based, human; conditions: melanoma, 48 h
# [29] = test system: T-47D; assay: NCI single dose (10 µM) SRB screen; format: cell-based, human; conditions: breast cancer, 48 h
# [30] = test system: HS578T; assay: NCI single dose (10 µM) SRB screen; format: cell-based, human; conditions: breast cancer, 48 h
# [31] = test system: Staphylococcus aureus; assay: Agar well diffusion method; conditions: relative to ciprofloxacin
# [32] = test system: UO-31; assay: NCI single dose (10 µM) SRB screen; format: cell-based, human; conditions: renal cancer, 48 h
# [33] = test system: SF-539; assay: NCI single dose (10 µM) SRB screen; format: cell-based, human; conditions: CNS cancer, 48 h
# [34] = test system: NCI-H226; assay: NCI single dose (10 µM) SRB screen; format: cell-based, human; conditions: non-small cell lung cancer, 48 h
# [35] = test system: OVCAR-8; assay: NCI single dose (10 µM) SRB screen; format: cell-based, human; conditions: ovarian cancer, 48 h
# [36] = test system: NCI/ADR-RES; assay: NCI single dose (10 µM) SRB screen; format: cell-based, human; conditions: ovarian cancer, 48 h
# [37] = test system: IGROV1; assay: NCI single dose (10 µM) SRB screen; format: cell-based, human; conditions: ovarian cancer, 48 h
# [38] = test system: CAKI-1; assay: NCI single dose (10 µM) SRB screen; format: cell-based, human; conditions: renal cancer, 48 h
# [39] = test system: SN12C; assay: NCI single dose (10 µM) SRB screen; format: cell-based, human; conditions: renal cancer, 48 h
# [40] = test system: HCT-116; assay: NCI single dose (10 µM) SRB screen; format: cell-based, human; conditions: colon cancer, 48 h
# [41] = test system: HCT-15; assay: NCI single dose (10 µM) SRB screen; format: cell-based, human; conditions: colon cancer, 48 h
# [42] = test system: RPMI-8226; assay: NCI single dose (10 µM) SRB screen; format: cell-based, human; conditions: leukaemia, 48 h
# [43] = test system: Pseudomonas aeruginosa; assay: Agar well diffusion method; conditions: relative to ciprofloxacin
# [44] = test system: DU-145; assay: NCI single dose (10 µM) SRB screen; format: cell-based, human; conditions: prostate cancer, 48 h
# [45] = test system: SNB-19; assay: NCI single dose (10 µM) SRB screen; format: cell-based, human; conditions: CNS cancer, 48 h
# [46] = test system: EKVX; assay: NCI single dose (10 µM) SRB screen; format: cell-based, human; conditions: non-small cell lung cancer, 48 h
# [47] = test system: SNB-75; assay: NCI single dose (10 µM) SRB screen; format: cell-based, human; conditions: CNS cancer, 48 h
# [48] = test system: OVCAR-5; assay: NCI single dose (10 µM) SRB screen; format: cell-based, human; conditions: ovarian cancer, 48 h
# [49] = test system: RXF 393; assay: NCI single dose (10 µM) SRB screen; format: cell-based, human; conditions: renal cancer, 48 h
# [50] = test system: SK-MEL-28; assay: NCI single dose (10 µM) SRB screen; format: cell-based, human; conditions: melanoma, 48 h
# [51] = test system: COLO 205; assay: NCI single dose (10 µM) SRB screen; format: cell-based, human; conditions: colon cancer, 48 h
# [52] = test system: UACC-257; assay: NCI single dose (10 µM) SRB screen; format: cell-based, human; conditions: melanoma, 48 h
# [53] = test system: MOLT-4; assay: NCI single dose (10 µM) SRB screen; format: cell-based, human; conditions: leukaemia, 48 h
# [54] = test system: NCI-H23; assay: NCI single dose (10 µM) SRB screen; format: cell-based, human; conditions: non-small cell lung cancer, 48 h
# [55] = test system: SF-268; assay: NCI single dose (10 µM) SRB screen; format: cell-based, human; conditions: CNS cancer, 48 h
# [56] = test system: HCC-2998; assay: NCI single dose (10 µM) SRB screen; format: cell-based, human; conditions: colon cancer, 48 h
# [57] = test system: MDA-MB-468; assay: NCI single dose (10 µM) SRB screen; format: cell-based, human; conditions: breast cancer, 48 h
# [58] = test system: A549/ATCC; assay: NCI single dose (10 µM) SRB screen; format: cell-based, human; conditions: non-small cell lung cancer, 48 h
# [59] = test system: ACHN; assay: NCI single dose (10 µM) SRB screen; format: cell-based, human; conditions: renal cancer, 48 h
# [60] = test system: NCI 60 cancer cell lines; assay: NCI single dose (10 µM) SRB screen, mean over panel; format: cell-based, human; conditions: mean over 60 cell lines, 48 h
# [61] = test system: MDA-MB-231; assay: NCI single dose (10 µM) SRB screen; format: cell-based, human; conditions: breast cancer, 48 h
# [62] = test system: Bacillus subtilis; assay: Agar well diffusion method; conditions: relative to ciprofloxacin
# [63] = test system: NCI-H322M; assay: NCI single dose (10 µM) SRB screen; format: cell-based; conditions: non-small cell lung cancer, 48 h
# [64] = test system: UACC-62; assay: NCI single dose (10 µM) SRB screen; format: cell-based, human; conditions: melanoma, 48 h
# [65] = test system: SF-295; assay: NCI single dose (10 µM) SRB screen; format: cell-based, human; conditions: CNS cancer, 48 h
# [66] = test system: CCRF-CEM; assay: NCI single dose (10 µM) SRB screen; format: cell-based, human; conditions: leukaemia, 48 h
# [67] = test system: PC-3; assay: NCI single dose (10 µM) SRB screen; format: cell-based, human; conditions: prostate cancer, 48 h
structure (smiles),measurement,setting,value
"CC1=C(C(=O)OC(C)(C)C)C(c2cccc(C#N)c2)C(C(=O)OC(C)(C)C)=C(C)N1 [Compound 1e, Di-tert-butyl 4-(3-cyanophenyl)-2,6-dimethyl-1,4-dihydropyridine-3,5-dicarboxylate]",GI% U251,[1],– (Only GI% ≥ 10 are shown)
same,"% activity index, C. albicans",[2],– (Values below 25 are of limited value and not shown as they refer either to inactive or non-diffusing compounds)
same,GI% OVCAR-4,[3],– (Only GI% ≥ 10 are shown)
same,GI% K-562,[4],34%
same,GI% SW-620,[5],– (Only GI% ≥ 10 are shown)
same,"% activity index, E. coli",[6],– (Values below 25 are of limited value and not shown as they refer either to inactive or non-diffusing compounds)
same,"% activity index, A. flavus",[7],– (Values below 25 are of limited value and not shown as they refer either to inactive or non-diffusing compounds)
same,GI% MALME-3M,[8],– (Only GI% ≥ 10 are shown)
same,GI% A498,[9],– (Only GI% ≥ 10 are shown)
same,GI% HT29,[10],13%
same,GI% SK-OV-3,[11],– (Only GI% ≥ 10 are shown)
same,GI% HOP-92,[12],30%
same,GI% MDA-MB-435,[13],– (Only GI% ≥ 10 are shown)
same,melting point,,166 to 168 °C
same,GI% HL-60(TB),[14],41%
same,GI% MCF7,[15],34%
same,GI% SK-MEL-2,[16],– (Only GI% ≥ 10 are shown)
same,GI% NCI-H460,[17],– (Only GI% ≥ 10 are shown)
same,GI% SR,[18],42%
same,GI% TK-10,[19],– (Only GI% ≥ 10 are shown)
same,GI% BT-549,[20],– (Only GI% ≥ 10 are shown)
same,GI% HOP-62,[21],– (Only GI% ≥ 10 are shown)
same,GI% LOX IMVI,[22],10%
same,GI% KM12,[23],11%
same,GI% NCI-H522,[24],17%
same,GI% OVCAR-3,[25],– (Only GI% ≥ 10 are shown)
same,GI% SK-MEL-5,[26],14%
same,GI% 786-0,[27],18%
same,GI% M14,[28],– (Only GI% ≥ 10 are shown)
same,GI% T-47D,[29],53%
same,GI% HS578T,[30],– (Only GI% ≥ 10 are shown)
same,"% activity index, S. aureus",[31],– (Values below 25 are of limited value and not shown as they refer either to inactive or non-diffusing compounds)
same,GI% UO-31,[32],25%
same,GI% SF-539,[33],10%
same,GI% NCI-H226,[34],22%
same,GI% OVCAR-8,[35],– (Only GI% ≥ 10 are shown)
same,GI% NCI/ADR-RES,[36],– (Only GI% ≥ 10 are shown)
same,GI% IGROV1,[37],– (Only GI% ≥ 10 are shown)
same,GI% CAKI-1,[38],32%
same,GI% SN12C,[39],– (Only GI% ≥ 10 are shown)
same,GI% HCT-116,[40],35%
same,GI% HCT-15,[41],19%
same,GI% RPMI-8226,[42],39%
same,"% activity index, P. aeruginosa",[43],– (Values below 25 are of limited value and not shown as they refer either to inactive or non-diffusing compounds)
same,GI% DU-145,[44],– (Only GI% ≥ 10 are shown)
same,GI% SNB-19,[45],– (Only GI% ≥ 10 are shown)
same,GI% EKVX,[46],20%
same,GI% SNB-75,[47],38%
same,GI% OVCAR-5,[48],– (Only GI% ≥ 10 are shown)
same,GI% RXF 393,[49],33%
same,GI% SK-MEL-28,[50],– (Only GI% ≥ 10 are shown)
same,GI% COLO 205,[51],– (Only GI% ≥ 10 are shown)
same,GI% UACC-257,[52],16%
same,GI% MOLT-4,[53],39%
same,GI% NCI-H23,[54],13%
same,GI% SF-268,[55],11%
same,GI% HCC-2998,[56],– (Only GI% ≥ 10 are shown)
same,GI% MDA-MB-468,[57],27%
same,GI% A549/ATCC,[58],20%
same,GI% ACHN,[59],14%
same,Mean GI%,[60],14%
same,GI% MDA-MB-231,[61],14%
same,"% activity index, B. subtilis",[62],– (Values below 25 are of limited value and not shown as they refer either to inactive or non-diffusing compounds)
same,GI% NCI-H322M,[63],– (Only GI% ≥ 10 are shown)
same,GI% UACC-62,[64],26%
same,GI% SF-295,[65],27%
same,GI% CCRF-CEM,[66],16%
same,GI% PC-3,[67],48%
